Activity calls are given as the source filed them. The calls are words filed in the database; no cut-off is given here.
Columns and labels:
[1] = tested on: Trypanosoma cruzi; assay: Antiparasitic activity against Trypanosoma cruzi Tulahuen intracellular forms infected in mouse L929 cells incubated for 96 hrs by spectrophotometery; type: functional, organism-based; settings: L929, 96 h
[2] = tested on: HepG2; assay: Cytotoxicity against human HepG2 cells assessed as cell viability at 10 uM incubated for 24 hrs by MTT assay; type: toxicity, cell-based; settings: hepg2, 24 h
[3] = tested on: Leishmania amazonensis; assay: Antiparasitic activity against Leishmania amazonensis MHOM/BR/77/LTB0016 amastigotes infected in BALB/c mouse incubated for 48 hrs by Alamar Blue assay; type: functional, organism-based; settings: MHOM/BR/77/LTB0016, 48 h
[4] = biological target: T1, Protein deacetylase HDAC6 (Homo sapiens, UniProt Q9UBN7); assay: Inhibition of HDAC6 (unknown origin) using RHKK(Ac)AMC as substrate
T1 sequence (Q9UBN7 whole entry): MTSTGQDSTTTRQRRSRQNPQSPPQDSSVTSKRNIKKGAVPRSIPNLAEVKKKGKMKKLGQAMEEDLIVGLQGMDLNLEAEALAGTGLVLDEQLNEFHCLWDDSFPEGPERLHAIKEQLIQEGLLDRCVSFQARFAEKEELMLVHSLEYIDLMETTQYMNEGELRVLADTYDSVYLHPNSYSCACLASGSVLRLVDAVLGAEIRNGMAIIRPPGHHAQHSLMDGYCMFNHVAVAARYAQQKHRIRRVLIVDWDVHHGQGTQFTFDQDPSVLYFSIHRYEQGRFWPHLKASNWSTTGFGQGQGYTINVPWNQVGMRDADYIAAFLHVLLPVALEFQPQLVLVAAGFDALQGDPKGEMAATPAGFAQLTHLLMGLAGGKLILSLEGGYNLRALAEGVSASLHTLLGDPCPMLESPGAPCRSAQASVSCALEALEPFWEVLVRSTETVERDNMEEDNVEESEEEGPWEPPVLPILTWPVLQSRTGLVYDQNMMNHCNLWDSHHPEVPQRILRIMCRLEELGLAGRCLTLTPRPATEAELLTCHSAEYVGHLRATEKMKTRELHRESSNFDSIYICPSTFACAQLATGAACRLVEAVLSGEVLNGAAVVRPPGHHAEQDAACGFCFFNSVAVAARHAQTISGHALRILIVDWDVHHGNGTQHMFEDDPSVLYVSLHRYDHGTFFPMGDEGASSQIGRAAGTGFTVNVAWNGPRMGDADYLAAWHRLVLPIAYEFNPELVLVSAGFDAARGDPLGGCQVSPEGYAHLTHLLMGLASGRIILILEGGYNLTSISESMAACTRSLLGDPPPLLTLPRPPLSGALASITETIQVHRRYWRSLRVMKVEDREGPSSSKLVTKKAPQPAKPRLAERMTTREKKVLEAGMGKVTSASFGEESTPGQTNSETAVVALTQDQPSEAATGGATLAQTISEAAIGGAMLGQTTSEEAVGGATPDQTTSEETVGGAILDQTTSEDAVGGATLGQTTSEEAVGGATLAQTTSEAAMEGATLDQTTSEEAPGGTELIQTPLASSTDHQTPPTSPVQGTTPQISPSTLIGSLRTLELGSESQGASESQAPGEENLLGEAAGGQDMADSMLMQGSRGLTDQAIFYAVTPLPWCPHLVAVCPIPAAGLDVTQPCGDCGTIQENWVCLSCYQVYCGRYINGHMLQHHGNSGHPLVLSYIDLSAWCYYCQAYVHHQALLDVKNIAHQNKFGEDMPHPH

[5] = tested on: Trypanosoma brucei; assay: microbe, parasite or virus in culture; type: functional, organism-based; settings: Lister 427WT, 48 h
Description: Antiparasitic activity against Trypanosoma brucei Lister 427WT bloodstream trypomastigotes incubated for 48 hrs by Resazurin assay

[6] = biological target: T2, Histone deacetylase (Homo sapiens) (UniProt Q13547+O15379+Q9UBN7+Q92769+Q9UQL6+Q8WUI4+Q9BY41+Q96DB2+P56524+Q9UKV0+Q969S8); assay: Inhibition of HDAC in human MET5A cells transfected with Rluc-Brd/YFP-fused histone H3 by BRET assay; type: cell-based; settings: dose 0.1-10 µM
[7] = tested on: Leishmania mexicana; assay: Antiparasitic activity against Leishmania mexicana Cas9 promastigotes incubated for 48 hrs by Resazurin assay; type: functional, organism-based; settings: Cas9, 48 h
[8] = tested on: IMR-32; assay: Cytotoxicity against human IMR-32 cells assessed as cell viability at 10 uM incubated for 24 hrs by MTT assay; type: toxicity, cell-based; settings: imr-32, 24 h
[9] = Cytotoxicity against mouse L929 cells incubated for 96 hrs by Alamar Blue assay; type: toxicity, cell-based; settings: read-out: LC50
[10] = tested on: HepG2; assay: Cytotoxicity against human HepG2 cells assessed as reduction in cell viability at 10 uM incubated for 24 hrs by MTT assay relative to control; type: toxicity, cell-based; settings: hepg2, 24 h
[11] = biological target: T2, Histone deacetylase (Homo sapiens); assay: Inhibition of HDAC in human MET5A cells transfected with Rluc-Brd/YFP-fused histone H3 at 0.1 to 10 uM by BRET assay; type: cell-based; settings: dose 0.1-10 µM

## O=C(CCCCCCCCCCCc1cccc(O)c1)NO
[1]
  EC50: > 10 µM
[2]
  Activity: Non-Toxic
[3]
  EC50: > 30 µM
[4]
  IC50: 1.01 µM
[5]
  EC50: 5.1 µM
[6]
  inhibition: Dose-Dependent Effect
[7]
  EC50: ~100 µM
[8]
  Activity: Non-Toxic
[9]
  CC50 at 96 h: 151 µM

## COc1cccc(CCCCCCCCCCCC(=O)NO)c1
[1]
  EC50: > 10 µM
[10]
  Activity: 25%
[3]
  EC50: > 30 µM
[11]
  inhibition: inactive
[5]
  EC50: 0.7 µM
[7]
  EC50: 104 µM
[8]
  Activity: Non-Toxic
[9]
  CC50 at 96 h: 157 µM

## Nc1ccccc1NC(=O)CCCCCCCCCCCc1cccc(OC(=O)c2ccccc2)c1
[1]
  EC50: > 10 µM
[2]
  Activity: Non-Toxic
[3]
  EC50: > 30 µM
[11]
  inhibition: inactive
[5]
  EC50: 8.5 µM
[7]
  EC50: > 100 µM
[8]
  Activity: Non-Toxic
[9]
  CC50 at 96 h: > 200 µM

## COc1cccc(CCCCCCCCCCCC(=O)Nc2ccccc2N)c1
[1]
  EC50: > 10 µM
[2]
  Activity: Non-Toxic
[11]
  inhibition: inactive
[5]
  EC50: 14.4 µM
[7]
  EC50: > 100 µM
[8]
  Activity: Non-Toxic
[9]
  CC50 at 96 h: > 200 µM

## O=C(CCCCCCCCCCCc1cccc(OCc2ccccc2)c1)NO
[1]
  EC50: > 10 µM
[2]
  Activity: Non-Toxic
[3]
  EC50: 14.5 µM
[5]
  EC50: 4.8 µM
[6]
  inhibition: Dose-Dependent Effect
[7]
  EC50: 69 µM
[8]
  Activity: Non-Toxic
[9]
  CC50 at 96 h: 90 µM

## O=C(Cn1ccnc1[N+](=O)[O-])NCc1ccccc1 [BENZNIDAZOLE]
[1]
  EC50: 2.63 µM
[9]
  CC50 at 96 h: > 200 µM

## CCCCCCCCCCCCCCCCOP(=O)([O-])OCC[N+](C)(C)C [MILTEFOSINE]
[3]
  EC50: 1.38 µM

## N=C(N)c1ccc(OCCCCCOc2ccc(C(=N)N)cc2)cc1 [PENTAMIDINE]
[5]
  EC50: 0.021 µM
[7]
  EC50: 1.3 µM

## C[C@@H]1[C@H](O)[C@@H](C)/C=C/C=C/C=C/C=C/C=C/C=C/C=C/[C@H](O[C@@H]2O[C@H](C)[C@@H](O)[C@H](N)[C@@H]2O)C[C@@H]2O[C@](O)(C[C@@H](O)C[C@@H](O)[C@H](O)CC[C@@H](O)C[C@@H](O)CC(=O)O[C@H]1C)C[C@H](O)[C@H]2C(=O)O [AMPHOTERICIN B]
[7]
  EC50: 0.15 µM

## Nc1ccccc1NC(=O)CCCCCCCCCCCc1cccc(OCc2ccccc2)c1
[1]
  EC50: > 10 µM
[2]
  Activity: Non-Toxic
[3]
  EC50: > 30 µM
[11]
  inhibition: inactive
[5]
  EC50: 78.3 µM
[7]
  EC50: > 100 µM
[8]
  Activity: Non-Toxic
[9]
  CC50 at 96 h: > 200 µM

## Nc1ccccc1NC(=O)CCCCCCCCCCCc1cccc(O)c1
[1]
  EC50: > 10 µM
[2]
  Activity: Non-Toxic
[3]
  EC50: > 30 µM
[11]
  inhibition: inactive
[5]
  EC50: 7.2 µM
[7]
  EC50: 58 µM
[8]
  Activity: Non-Toxic
[9]
  CC50 at 96 h: 145 µM

## O=C(CCCCCCCCCCCc1cccc(OC(=O)c2ccccc2)c1)NO
[1]
  EC50: > 10 µM
[2]
  Activity: Non-Toxic
[3]
  EC50: > 30 µM
[11]
  inhibition: inactive
[5]
  EC50: 4.8 µM
[7]
  EC50: 54 µM
[8]
  Activity: Non-Toxic
[9]
  CC50 at 96 h: 79 µM

From ChEMBL document CHEMBL5614458, “Benign-by-Design SAHA Analogues for Human and Animal Vector-Borne Parasitic Diseases” (ACS Med Chem Lett, 2024)
